# Where two headings read alike, the source gives them in different places.
# What was measured:
# [1] = system: Calu-6 cell tumors in nude mice; assay: In vivo established Calu-6 tumors: tumor size and p53 western blot; parameters: species or system mouse; conditions: DAP for 1 week after tumor size about 0.4 cm^3
# [2] = DAP stability assay in human liver S9; format: in vitro ADME; conditions: pooled human liver S9 fraction, 37 °C, read-out: Recovery of the molecule after incubation
# Method: The S9 mix was composed of 5 mM glucose-6-phosphate (Ref. G7879, Batch no. SLBP253V, Sigma, France), 33.5 mM KCl (Ref. P3911, Batch no. SLBQ3328V, Sigma, France), 8 mM MgCl2 (Ref. M8266, Batch no. SLBK9099V, Sigma, France), 4 mM β-NADP (Ref. N5755, Batch no. SLBJ7935V, Sigma, France), and 100 mM NaH2PO4 (Ref. S3139, Batch no. BCBT3558, Sigma, France) in ultrapure water (Ref. BE51200, Batch no. BCBT3558, Lonza, France). Seventy-five microliters of human liver S9 fraction (Pooled Human Liver S9, 20 mg/ml, Ref. 452961, BD, France) was then added to 1380 µl of this S9 mix. The solution was warmed for 15 min at 37 °C in a thermostated water bath. The final protein concentration was 1 mg/ml after addition of working solutions.
# The samples were then centrifuged and directly analyzed by LC–MS. The extraction efficiency was estimated at 97.2%. After extraction, the collected supernatants were directly injected into the HPLC system for analysis. Analysis was performed by MS to allow detection of potential metabolite(s).
# [3] = system: HCC-GR6 cell tumors (wild-type TP53) in nude mice; assay: In vivo tumor growth, HCC-GR6 cells in nude mice; parameters: species or system mouse; conditions: force-fed daily, 5 weeks
# Method: (§1) Next, the capacity of DAP to correct UGA nonsense mutations in vivo was assessed in a mouse model. Four-week-old immunodeficient nude mice were injected with an identical number of Calu-6 cells carrying a UGA nonsense mutation in the TP53 gene, of HCC-GR6 cells having a wild-type TP53 gene or of p53-null 4T1 cells. […] The slower growth of Calu-6-cell-derived tumors in DAP-treated mice is thus likely due to rescue of p53 protein synthesis in these tumors, as expected on the basis of our cell culture experiments and as observed after western-blotting applied to protein extracts of tumors from DAP-treated mice (Supplementary Fig. 8B). Because of the small size of the Calu-6 tumors in DAP-treated mice and thus the high probability of collecting mouse cells upon tumor excision, quantitation of p53 was done in another experiment.
# To initiate tumor growth, 6-week-old nude mice received subcutaneously 10 million cells suspended in PBS. […] Tumors were measured three times weekly for 5 weeks to determine the tumor volume by the following formula: l (mm) × L (mm) × L (mm). […]
# The mice were exposed to DMSO or DAP for about five weeks and tumor size was measured three times weekly and plotted on the graph. […]
# (B) Western blot analysis of p53 protein in the Calu-6-cell tumors of the seven DMSO-exposed and seven DAP-exposed mice. […] Error bar= S.D., p-values (p) were calculated using Student's t-test. […]
# HeLa cells = assay: 2D differential gel electrophoresis (2D-DIGE) of whole proteome; format: cell-based, human
# [4] = system: Calu-6 cell tumors (TP53 UGA nonsense mutation) in nude mice; format: in vivo; parameters: tumor size, Average: unit not given here
# Method: For each experimental condition, 7 mice were used. b Fourteen nude mice were injected with Calu-6 cells to promote tumor development. […] The arrow indicates the starting time of the exposure to DMSO or DAP. For each experimental condition, 7 mice were used. […] GAPDH was used as loading control. A molecular weight marker is indicated to the left of the gel. The results presented in this figure are representative of two independent experiments. p-values (p) were calculated using Student’s t-test. Source data are provided as a Source Data file.
# as §1
# To initiate tumor growth, 6-week-old nude mice received subcutaneously 10 million cells suspended in PBS. […] Tumors were measured three times weekly for 5 weeks to determine the tumor volume by the following formula: l (mm) × L (mm) × L (mm). The tumors were then collected and a fraction was used for western blot analysis after protein extraction. All in vivo experiments complied with all relevant ethical regulations for animal testing and research and were authorized by the Ethic Committee 075 under the number 12971-2018010815336092.
# [5] = system: tRNA 2′-O-methylation in HeLa cells; assay: tRNA 2′-O-methylation analysis by RiboMethSeq; format: cell-based, human; conditions: 25 µM DAP, 24 h
# Description: Firefly luciferase from HEK293FT cells transfected with the Fluc-int-UGA construct was immunoprecipitated and digested with trypsin. The MS/MS spectrum of the peptide containing the PTC position and the sequence determination are shown. The upper red and blue sequences indicate the amino acids validated, respectively, by detection of Nter and Cter peptide fragments (b and y ion series). Peptide fragments y6 and y7 clearly identify tryptophan (W) at the PTC position. The black peaks correspond to non-attributed mass-to-charge ratio (m/z) values. […] Readthrough efficiency was determined by measuring luciferase activity in HeLa cells co-transfected with the firefly luciferase construct described in Fig. 1b and with increasing amounts of an expression vector for either FTSJ1 or CTU1 (0.5, 1, or 2 µg). The empty expression vector (E.v.) was used as control. […] The experiment was performed twice and the results of both experiments (Exp1 and Exp2) are shown. c Western blot analysis of FTSJ1 and CTU1. d 2′-O-methylation analysis of tRNA^Trp, tRNA^SER, and tRNA^GLN by RiboMethSeq. […] A molecular weight marker is indicated to the left of each gel. p-values (p) were calculated using Student’s t-test. Source data are provided as a Source Data file.
# HeLa cells were incubated with DMSO or DAP before extraction of small RNAs (which include tRNAs). RiboMethSeq analysis of human tRNAs was then performed. […] Although the human targets of FTSJ1 remain poorly characterized, modification of Cm34 in tRNA^Trp has been attributed to FTSJ1 (ref. [41]). […] This is consistent with DAP-dependent inhibition of FTSJ1 activity. The third hit was 2′-O-methylation of tRNA^Ser at position Gm18, attributed to TARBP1 activity.
# The detailed protocol and a description of the RiboMethSeq assay are provided elsewhere.
smiles,measurement,setting,value
"Nc1nc(N)c2[nH]cnc2n1 [DAP, 2,6-diaminopurine]",p53 protein in tumors (western blot),[1],detected in tumors isolated from DAP-fed
same,"recovery at 4 h, 300 µM",[2],> 80%
same,"Tumor growth vs DMSO, in words",[3],no significant difference in tumor growth
same,Pearson correlation coefficient of proteome profiles DAP vs DMSO,HeLa cells,0.94
same,"tumor size, Average","[4]; Calu-6, day 4, average of 7 mice",0.07457
same,"tumor size, Average","[4]; Calu-6, day 6, average of 7 mice",0.06657
same,"tumor size, Average","[4]; Calu-6, day 9, average of 7 mice",0.067
same,"tumor size, Average","[4]; Calu-6, day 11, average of 7 mice",0.05029
same,"tumor size, Average","[4]; Calu-6, day 13, average of 7 mice",0.039
same,"tumor size, Average","[4]; Calu-6, day 16, average of 7 mice",0.037
same,"tumor size, Average","[4]; Calu-6, day 18, average of 7 mice",0.03471
same,"tumor size, Average","[4]; Calu-6, day 20, average of 7 mice",0.06171
same,"tumor size, Average","[4]; Calu-6, day 23, average of 7 mice",0.07814
same,"tumor size, Average","[4]; Calu-6, day 25, average of 7 mice",0.06286
same,"tumor size, Average","[4]; Calu-6, day 27, average of 7 mice",0.07829
same,"tumor size, Average","[4]; Calu-6, day 30, average of 7 mice",0.09486
same,"tumor size, Average","[4]; Calu-6, day 32, average of 7 mice",0.1364
same,"tumor size, Average","[4]; Calu-6, day 34, average of 7 mice",0.1461
same,"tumor size, Average","[4]; Calu-6, day 37, average of 7 mice",0.1584
same,"tumor size, Average","[4]; Calu-6, day 39, average of 7 mice",0.2454
same,"tumor size, Average","[4]; Calu-6, day 41, average of 7 mice",0.2229
same,"Tumor growth vs DMSO, in words","[4]; Calu-6, nude mice, force-fed daily, 5 weeks",strongly impaired tumor growth
same,Toxicity in a mouse model,"[4]; mouse, in vivo, po",no detectable toxicity
same,2′-O-methylation of tRNA^Trp at position 34,[5],Notably affected
same,Cm32 methylation of tRNA^Gln,[5],reduced Cm32 methylation
same,Level of tRNA 2′-O-methylation,[5],significantly lower for three tRNAs

# Source: article PMC7083880 (Nature Communications, 2020)
